SMILES strings stand for the structures. Where two headings read alike, the source gives them in different places.

Data set [1] concerns nondependent, recreational users of CNS depressants. The data set is described as follows: Abuse potential study: MOAA/S sedation scores (dose selection and main study). The settings on record: dose selection, 60, 80 or 90 mg. Format: in vivo, human. The protocol: The first part of the study, dose selection, was a 3-cohort, randomized, double-blind, placebo-controlled, dose-escalation design to identify 2 doses higher than Compound (1)'s anticipated therapeutic dose (30 mg) to carry forward into the main study (FIG. 30A-30B) (U.S. Department of Health and Human Services Food and Drug Administration, Center for Drug Evaluation and Research (CDER). Assessment of abuse potential of drugs: guidance for industry. January, 2017; Griffiths R R, et al. Drug Alcohol Depend. 2003; 70(3):S41-54; Schoedel K, Sellers E. Clin Pharmacol Ther. 2008; 83(4):622-626). The 2 doses were selected based on their safety and tolerability in the dose selection phase, as assessed during sentinel dosing (described below) by the safety and tolerability endpoints (described below). […]
MOAA/S scores were assessed before dose administrations and at multiple time points (1, 2, 3, 4, 5, 6, 7, 8, 10, 12, and 24 hours) after dosing using a 6-point scale, ranging from 0 (no response after painful trapezius squeeze) to 5 (responds readily to name spoken in a normal tone; Table 18). Electrocardiogram measures and the C-SSRS were assessed during screening, admission, at Day 3, and/or at early termination, and AEs/SAEs were assessed on an ongoing basis during enrollment in the study. […]

Data set [2] can be described thus: Abuse potential main study: plasma pharmacokinetics after a single oral dose. Format: in vivo, human. To be noted: for Tmax / half-life / AUC(0-t) / Cmax: human, plasma. As to the method:
Safety and tolerability endpoints included the frequency and severity of AEs and SAEs, the change from baseline in clinical laboratory assessments, vital signs, and ECG, and suicidality assessed by the Columbia-Suicide Severity Rating Scale (C-SSRS).
During the treatment phase, PK measures were assessed predose and at multiple time points, from 0.5 to 24 hours after dosing. Blood samples collected for plasma analyses were kept frozen (approximately −70° C. to −80° C.) until analysis. The quantification of the Compound (1) plasma concentration was performed by a bioanalytical laboratory (PRA Health Sciences, Lenexa, Kansas) using a validated liquid chromatography with a tandem mass spectroscopic method. The validated range of the assay was 1.00 to 500 ng/ml.
All PK analyses were based on the PK analysis set. Descriptive statistics included sample size, arithmetic mean, standard deviation, arithmetic coefficient of variation (CV), first quartile, median, and the minimum and maximum values […]. For summary statistics, PK concentration values below the limit of quantification were treated as zero. For calculating PK parameters, PK concentration values of zero that occurred prior to or after the first quantifiable concentration were imputed as zero or missing, respectively. The Compound (1) plasma PK parameters were estimated for each participant using noncompartmental analysis (Phoenix® WinNonlin® version 8.0 or later). The estimation of the terminal-elimination rate constant (λz) and λz-derived PK parameters were dependent upon inspection of PK data and a minimum of three time points in the terminal phase with adjusted R2 ≥0.8.

Broadly, the Tmax is the time from dosing to the highest level. By Cmax is commonly meant the maximum level reached in the sampled fluid or tissue. On to `C[C@@]1(O)CC[C@H]2[C@H](CC[C@@H]3[C@@H]2CC[C@]2(C)[C@@H](C(=O)Cn4cc(C#N)cn4)CC[C@@H]32)C1` [Compound (1), 1-(2-((3R,5R,8R,9R,10S,13S,14S,17S)-3-hydroxy-3,13-dimethylhexadecahydro-1H-cyclopenta[a]phenanthren-17-yl)-2-oxoethyl)-1H-pyrazole-4-carbonitrile], for which the “Time for all MOAA/S scores to return to baseline score of 5” value in data set [1] is not above 8 hours postdose. Also, the “MOAA/S score (mild sedation) in 1 to 4 participants of at least 1 cohort” value in data set [1] (2-7 hours postdose) is 2-4. Further, the “AUC0-24, geometric mean” value in data set [2] (60 mg single oral dose) amounted to 982 ng·h/mL. Besides, in data set [2] (30, 60, 90 mg, capsule), the “T½ values, range over doses” value lay within 10 to 11 h. The Tmax in data set [2] (oral, 90 mg, 30, 60, 90 mg, capsule, read-out: Tmax (median), all three doses) came out at 5.1 h; in data set [2] (po, 30 mg, 30 mg single oral dose, read-out: Tmax, median) it was 5.1 h; in data set [2] (po, 60 mg, 60 mg single oral dose, read-out: Tmax, median) it was 5.1 h; in data set [2] (po, 90 mg, 90 mg single oral dose, read-out: Tmax, median), 5.1 h. Further, the half-life was 9.92 to 10.9 h in data set [2] (oral, 90 mg, 30, 60, 90 mg, capsule, read-out: T½ values, range over doses); 10.1 h in data set [2] (po, 30 mg, 30 mg single oral dose (n = 66), read-out: T½, geometric mean (converted)); 9.9 h in data set [2] (po, 60 mg, 60 mg single oral dose (n = 60), read-out: T½, geometric mean (converted)); 10.9 h in data set [2] (po, 90 mg, 90 mg single oral dose (n = 62), read-out: T½, geometric mean (converted)). The AUC(0-t) in data set [2] (oral, 30, 60, 90 mg, read-out: AUC0-24 values, range over doses) was 520 to 1330 ng·h/mL; in data set [2] (30 mg single oral dose, read-out: AUC0-24, geometric mean) it was 520 ng·h/mL; in data set [2] (90 mg single oral dose, read-out: AUC0-24, geometric mean) it was 1330 ng·h/mL. Further, the Cmax in data set [2] (oral, 30, 60, 90 mg, read-out: Cmax geometric mean values, range over doses) was 55.5 to 123 ng/mL; in data set [2] (30 mg single oral dose (n = 65), read-out: Cmax, geometric mean) it was 55.5 ng/mL; in data set [2] (60 mg single oral dose (n = 66), read-out: Cmax, geometric mean), 97.6 ng/mL; in data set [2] (90 mg single oral dose (n = 67), read-out: Cmax, geometric mean) it was 123 ng/mL.

The values above are taken from patent publication US20240216395A1, “19-NOR C3,3-DISUBSTITUTED C21 -N-PYRAZOLYL STEROID FOR USE IN TREATING MAJOR DEPRESSIVE DISORDER AND […]” (priority 2021, published 2024).
